For experiment [1], the system named is OXCMe. Kind of experiment: OXCMe aldehyde and ketone screen (carboligation with formyl-CoA, LC-MS of CoA esters). Conditions: 10 mM aldehyde, 1 mM formyl-CoA, 5 μM enzyme, 1 h, relative to the comparison of OXC and HACL, n.d. = product not detected.
Experimental: Samples were diluted 1:10 in H2O. UPLC-high resolution MS of CoA esters was performed as described previously.^[5] CoA esters were analyzed using an Agilent 6550 iFunnel Q-TOF LC-MS system equipped with an electrospray ionization source set to positive ionization mode. Compounds were separated on a RP-18 column (50 mm×2.1 mm, particle size 1.7 μm, Kinetex EVO C18, Phenomenex) using a mobile phase system comprised of 50 mM ammonium formate pH 8.1 (A) and methanol (B). Chromatographic separation was carried out using the following gradient condition at a flow rate of 250 μl/min: 0 min 2.5% B; 2.5 min 2.5% B; 8 min 23% B; 10 min 80% B; 11 min 80%; 12 min 2.5% B; 12.5 min 0% B. The column oven was set to 40° C. and autosampler was maintained at 10° C. Standard injection volume was 1 μl. Capillary voltage was set at 3.5 kV and nitrogen gas was used as nebulizing (20 psig), drying (13 l/min, 225° C.) and sheath gas (12 l/min, 400° C.). […] The scan range for MS and MS/MS data is 100-1000 m/z and 50-1000 m/z respectively. Collision energy used for MS/MS fragmentation was 35 eV.
Unless noted otherwise, all LC-MS assays were carried out at 30° C. in reaction buffer consisting of 50 mM TES-KOH pH 6.8, 10 mM MgCl2. 0.5 mM ADP, 0.15 mM ThDP.
In reaction buffer, 1 mM formyl-CoA and 10 mM aldehyde (formaldehyde, acetaldehyde, glycolaldehyde, propionaldehyde, glyceraldehyde, glyoxylate, succinic semialdehyde, benzaldehyde, phenylacetaldehyde, and acetone) was mixed with 5 μM OXCMe or HACLHs. The reaction was stopped after 1 h and products analyzed with the CoA ester method described above.
Experiment [2] concerns the target T1, HACLHs (Homo sapiens, UniProt Q9UJ83).
T1 construct: His-tag (from vector pET-16b); made in house; host or cells: E. coli ArcticExpress (DE3)
Kind of experiment: Aldehyde and ketone screen with HACLHs (carboligation with formyl-CoA, LC-MS of CoA esters). The experiment is classed as biochemical. Conditions: 10 mM aldehyde, 1 mM formyl-CoA, 5 μM enzyme, 1 h, relative to the comparison of OXC and HACL, n.d. = product not detected. As to the method:
Samples were diluted 1:10 in H2O. […] Standard injection volume was 1 μl.
0.5 mM ADP, 0.15 mM ThDP.

The test system of experiment [3] is OXS-OXCMe-YciA cascade with FRC. Kind of experiment: OXS-OXCMe-Y497A-YciA cascade with FRC (α-hydroxy carboxylic acid from oxalate, one pot). As to conditions: 2 μM FRC, 7.6 mM benzaldehyde or phenylacetaldehyde, 10 μM OXCMe-Y497A. The experiment is classed as biochemical. As to the method: 0.5 mM ADP, 0.15 mM ThDP, 0.5 mM CoA, 10 mM ATP, 7.6 mM benzaldehyde or phenylacetaldehyde, 2 μM FRC, 2 μM YciA, 10 μM OXCMe-Y497A and 5 μM OXS. The reaction was started by adding 10 mM disodium oxalate. Samples were taken after 0, 15, 30, 60 min and analyzed with the mandelic acid derivatives method described above.
0.5 mM ADP, 0.15 mM ThDP, 0.5 mM CoA, 10 mM ATP, 7.6 mM benzaldehyde or phenylacetaldehyde, 2 μM FRC (Formyl-CoA:oxalate CoA-transferase from Oxalobacter formigenes EC 2.8.3.16), 2 μM YciA, 10 μM OXCMe-Y497A and 5 μM OXS were mixed and the reaction was initiated by the addition of 10 mM disodium oxalate. For the negative control FRC was omitted in a separate reaction. Samples were taken after 0, 15, 30, 60 min and analyzed with the mandelic acid derivatives method described above.

In experiment [4] the test system is OXS-OXCMe-Y497A-YciA cascade. The experiment is classed as biochemical. As to conditions: 25 mM aldehyde, 10 mM disodium oxalate, 10 mM ATP, OXS 5 μM, OXCMe-Y497A 5 μM, YciA 2 μM; chiral HPLC. As to the method: Samples were diluted 1:10 in H2O. UPLC-high resolution MS analyses were performed on an Agilent 6550 iFunnel QTOF LC/MS system equipped with an electrospray ionization source to negative ionization mode. The analytes were isocratically chromatographed on a chiral column (100 mm×2.1 mm, particle size 2.7 μm, Poroshell 120 Chiral-T, Agilent) kept at ambient temperature using a mobile phase system comprised of 30:70 20 mM ammonium formate pH 4/methanol at a flow rate of 250 μl/min for 10 min. Samples were held at 10° C. and injection volume was 1 μl. […] MS data were acquired with a scan range of 100-1100 m/z. For quantification the calculated m/z value of [M-H]^− was used to obtain the extracted ion count from the total ion count.
0.5 mM ADP, 0.15 mM ThDP, 0.5 mM CoA, 10 mM ATP, 25 mM benzaldehyde, 5 μM OXS, 5 μM OXC and 2 μM YciA. The reaction was started by adding 10 mM oxalate. As negative controls, YciA, OXS or OXC were omitted in separate reactions. Samples were taken after 0, 0.05, 0.25, 0.66, 1, 2, 3, 22 hours and analyzed with the LC-MS detection of mandelic acid derivatives.
The aldehyde substrate screen of the OXS-OXCMe-Y497A-YciA cascade was carried out as described above (example 13), except that the aromatic aldehydes were prepared as 33 mM stocks in 20 vol % DMSO and diluted to final concentration of 25 mM into the assay. Samples were analyzed with the mandelic acid derivatives method described above. Mandelic acid (3a), 4-chloromandelic acid (3c), 2-chloromandelic acid (3d) and 3-phenyllactic acid (3b) were quantified by comparison to commercial standards.

Experiment [5] deals with T2, YciA (Escherichia coli, UniProt P0A8Z0).
T2 construct: His-tag (ASKA clone); made in house; host or cells: E. coli BL21 (DE3)
Kind of experiment: YciA substrate screen (thioesterase activity towards oxalyl-CoA, formyl-CoA, mandelyl-CoA). Format: biochemical, E. coli. As to conditions: 2 μM YciA, 0.5 mM CoA ester, 30° C., pH 6.8. As for the experimental part: 0.5 mM ADP, 0.15 mM ThDP and 25 mM benzaldehyde, 2 μM YciA (A) or no YciA (B). The reaction was started by adding either 0.5 mM formyl-CoA or 0.5 mM oxalyl-CoA or 0.5 mM mandelyl-CoA. Samples were taken after 0, 1, 5 and 30 minutes and analyzed with the LC-MS detection of CoA esters. CoA esters were quantified by comparison to synthetic standards of formyl-CoA, oxalyl-CoA and mandelyl-CoA, respectively. Error bars show standard deviation of two.
Thioesterase activity of YciA towards oxalyl-CoA, formyl-CoA and racemic mandelyl-CoA. […] 0.5 mM ADP, 0.15 mM ThDP and 25 mM benzaldehyde, 2 μM YciA (A) or no YciA (B). The reaction was started by adding either 0.5 mM formyl-CoA or 0.5 mM oxalyl-CoA or 0.5 mM mandelyl-CoA. Samples were taken after 0, 1, 5 and 30 minutes and analyzed with the LC-MS detection of CoA esters. CoA esters were quantified by comparison to synthetic standards of formyl-CoA, oxalyl-CoA and mandelyl-CoA, respectively.

The text below walks through data of patent US20220315968A1, “PEPTIDES AND METHODS FOR THE CARBON-CARBON BOND FORMATION” (Max-Planck-Gesellschaft zur Förderung der Wissenschaften …, priority 2019, published 2022).

T2 sequence (P0A8Z0 whole entry): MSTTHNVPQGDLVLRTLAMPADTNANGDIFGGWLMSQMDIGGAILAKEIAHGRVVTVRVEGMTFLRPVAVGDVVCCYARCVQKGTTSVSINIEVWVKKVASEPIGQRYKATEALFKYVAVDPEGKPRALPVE
T1 sequence (Q9UJ83 whole entry): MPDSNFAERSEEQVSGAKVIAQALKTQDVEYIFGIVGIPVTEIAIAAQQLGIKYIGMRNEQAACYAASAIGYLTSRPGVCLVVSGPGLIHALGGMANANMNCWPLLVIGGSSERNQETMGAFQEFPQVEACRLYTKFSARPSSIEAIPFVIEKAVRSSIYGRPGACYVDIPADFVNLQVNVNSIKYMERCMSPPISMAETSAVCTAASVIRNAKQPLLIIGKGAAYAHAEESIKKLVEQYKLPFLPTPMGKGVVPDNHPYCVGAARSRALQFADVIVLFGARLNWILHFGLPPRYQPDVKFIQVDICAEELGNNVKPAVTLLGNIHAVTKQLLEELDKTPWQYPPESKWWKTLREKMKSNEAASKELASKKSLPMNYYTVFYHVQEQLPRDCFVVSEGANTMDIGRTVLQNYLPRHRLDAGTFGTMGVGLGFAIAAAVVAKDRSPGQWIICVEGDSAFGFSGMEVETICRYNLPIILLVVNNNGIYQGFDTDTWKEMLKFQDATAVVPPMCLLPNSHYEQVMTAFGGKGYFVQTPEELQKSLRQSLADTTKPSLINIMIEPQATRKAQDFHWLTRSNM

For `CC(C)(COP(=O)(O)OP(=O)(O)OC[C@H]1O[C@@H](n2cnc3c(N)ncnc32)[C@H](O)[C@@H]1OP(=O)(O)O)[C@@H](O)C(=O)NCCC(=O)NCCSC(=O)C(O)CCC(=O)O` (some centres unmarked) [2-hydroxyglutaryl-CoA], the OXCMe relative activity in experiment [1] stood at 1%. Moreover, the HACLHs relative activity in experiment [2] is 100%.
For the molecule `O=C(O)C(O)c1ccccc1` (centres unmarked) [mandelic acid], the “increase of product formation rate by addition of FRC” value in experiment [3] turned out to be 1.4 fold. In experiment [4], the “Conversion [%]” value turned out to be 75%.
As for `O=C(O)[C@@H](O)c1ccccc1Cl` [2-chloromandelic acid, (S)-2-chloromandelic acid], the “Conversion [%]” value in experiment [4] is on record as 93%.
In turn, `CCC(O)C(=O)SCCNC(=O)CCNC(=O)[C@H](O)C(C)(C)COP(=O)(O)OP(=O)(O)OC[C@H]1O[C@@H](n2cnc3c(N)ncnc32)[C@H](O)[C@@H]1OP(=O)(O)O` (some centres unmarked) [2-hydroxybutyryl-CoA] came in with an OXCMe relative activity in experiment [1] of 5%. The HACLHs relative activity in experiment [2] came out at 100%.
Molecule `CC(C)(COP(=O)(O)OP(=O)(O)OC[C@H]1O[C@@H](n2cnc3c(N)ncnc32)[C@H](O)[C@@H]1OP(=O)(O)O)[C@@H](O)C(=O)NCCC(=O)NCCSC(=O)C(O)c1ccccc1` (some centres unmarked) [mandelyl-CoA] yielded an OXCMe relative activity in experiment [1] of 100%. For the same molecule, in experiment [2], the HACLHs relative activity came out at 3%. In addition, the “thioesterase activity of YciA towards the CoA ester” value (“thioesterase activity” for short) in experiment [5] is “relatively high”.
With `CC(C)(COP(=O)(O)OP(=O)(O)OCC1OC(n2cnc3c(N)ncnc32)C(O)C1OP(=O)(O)O)C(O)C(=O)NCCC(=O)NCCSC(=O)C(O)Cc1ccccc1` (centres unmarked) [phenyllactyl-CoA], the OXCMe relative activity in experiment [1] was 22%. Further, the HACLHs relative activity in experiment [2] is 100%.
`O=C(O)C(O)Cc1ccccc1` (racemic) [3-phenyllactic acid]: the “increase of product formation rate by addition of FRC” value in experiment [3] came to 2.3 fold. Further, in experiment [4], the “Conversion [%]” value amounted to 58%.
For the molecule `CC(C)(COP(=O)(O)OP(=O)(O)OC[C@H]1O[C@@H](n2cnc3c(N)ncnc32)[C@H](O)[C@@H]1OP(=O)(O)O)[C@@H](O)C(=O)NCCC(=O)NCCSC(=O)C(=O)O` [oxalyl-CoA], the “thioesterase activity” value in experiment [5] is reported as “no activity”.
As for `CC(C)(COP(=O)(O)OP(=O)(O)OC[C@H]1O[C@@H](n2cnc3c(N)ncnc32)[C@H](O)[C@@H]1OP(=O)(O)O)[C@@H](O)C(=O)NCCC(=O)NCCSC(=O)C(O)CO` (some centres unmarked) [glyceryl-CoA], the OXCMe relative activity in experiment [1] stood at 1%. In experiment [2], the HACLHs relative activity amounted to 100%.
For the molecule `CC(C)(COP(=O)(O)OP(=O)(O)OC[C@H]1O[C@@H](n2cnc3c(N)ncnc32)[C@H](O)[C@@H]1OP(=O)(O)O)[C@@H](O)C(=O)NCCC(=O)NCCSC=O` [formyl-CoA], the “thioesterase activity” value in experiment [5] is listed as “low activity”.
For the molecule `CC(C)(COP(=O)(O)OP(=O)(O)OC[C@H]1O[C@@H](n2cnc3c(N)ncnc32)[C@H](O)[C@@H]1OP(=O)(O)O)[C@@H](O)C(=O)NCCC(=O)NCCSC(=O)CO` [glycolyl-CoA], the OXCMe relative activity in experiment [1] amounted to 100%. The HACLHs relative activity in experiment [2] came to 11%.
Turning to `O=C(O)C(O)c1ccc(Cl)cc1` (racemic) [4-chloromandelic acid], in experiment [4], the “Conversion [%]” value is 57%.
Molecule `CC(O)C(=O)SCCNC(=O)CCNC(=O)[C@H](O)C(C)(C)COP(=O)(O)OP(=O)(O)OC[C@H]1O[C@@H](n2cnc3c(N)ncnc32)[C@H](O)[C@@H]1OP(=O)(O)O` (some centres unmarked) [lactyl-CoA] showed an OXCMe relative activity in experiment [1] of 74%. Further, the HACLHs relative activity in experiment [2] was 100%.
